Experiments:
[1] = tested on: C. albicans strain SC5314; experiment: Halo assay (zones of inhibition on confluent plates); type: cell-based, Candida albicans
Procedure: (§1) Confluent plates of either S. cerevisiae diploid strain SEY6210 (left panel) or C. albicans strain SC5314 (right panel) were spotted with 5 μl of destomycin (DSM), blasticidin (BSN), nourseothricin (NST), geneticin (G418), zeocin (ZEO), and puromycin (PUR) using concentrations of 10 mg/ml, 1 mg/ml, 0.5 mg/ml, 0.25 mg/ml, 0.125 mg/ml, and 0.06 mg/ml (top to bottom). Zones of inhibition were examined after overnight growth; clear halos indicate antifungal activity;
(§2) To explore the possibility of developing a dominant selectable marker for C. albicans, geneticin, the aminoglycoside used in dominant selection studies in S. cerevisiae was initially examined for antifungal activity in C. albicans (FIG. 1). […] When a number of alternative commercially available antibiotics including zeocin, destomycin, nourseothricin, blasticidin, and puromycin were tested for antifungal activity, the present inventors discovered that C. albicans was sensitive to nourseothricin at a concentration of about 200 μg/ml. […] C. albicans was also found to be sensitive to blasticidin. […] (Webster et al., 1983, Gene 26:243-252).

[2] = tested on: S. cerevisiae diploid strain SEY6210; experiment: as above; type: cell-based, Saccharomyces cerevisiae; conditions: at concentration dramatically below that at which geneticin acts
Procedure: as §1, §2

[3] = tested on: C. albicans CAI4 maintaining pRC18 vector and parent strain SC5314; experiment: Growth on nourseothricin-supplemented plates; type: cell-based, Candida albicans; conditions: 400 μg/ml; irrespective of carbon source (1% Casamino acid or YEP 2% glucose)
Procedure: ASTHMA, PSMP, and vector alone (lacking either SAT expression module) plasmids were transformed into CAI4 and directly selected on YPD-drug supplemented plates (400 μg/ml) prior to being restreaked onto a YPD plate containing 400 μg/ml nourseothricin. A) Six independent ASTHMA transformants, as well as the negative controls CAI4, containing pRC18, and the parent strain, SC5314 are shown after two days growth at 30° C. on YPD plates containing 400 μg/ml NST. B) Four independent PSMP transformants, as well as the negative controls, CAI4 maintaining pRC18, and SC5314, grown on YPD (left plate), and either derepressing conditions (1% Casamino acid+300 μg/ml NST, center plate), or repressing conditions (YPD+300 μg/ml NST, right plate) for PCK1 promoter-dependent expression of SAT. Plates were incubated two days at 30° C.; and
The composition of a YPD medium for culturing yeast contains 1% yeast extract, 2% bactopeptone and 2% glucose. Agar was added in an amount of 2% to the medium in the case of a plate form. Transformant were selected on Ura+ protophy and subsequently streaked onto nourseothricin-supplemented plates containing either 1% Casamino acid (derepressing conditions) or YEP containing 2% glucose (repressing conditions) as alternative carbon sources. […]

[4] = tested on: S. cerevisiae strain maintaining the geneticin resistance gene KanR; experiment: Nourseothricin sensitivity of geneticin-resistant (KanR) strain; type: cell-based, Saccharomyces cerevisiae; conditions: S. cerevisiae strain with KanR
From the text: The present inventors also compared the sensitivity of NST to geneticin in S. cerevisiae.

Q: For `CN(CC[C@H](N)CC(=O)N[C@H]1C=C[C@H](n2ccc(N)nc2=O)O[C@@H]1C(=O)O)C(=N)N` [blasticidin], which “antifungal (fungicidal) activity by halo assay” value ([1]; C. albicans SC5314, 5 μl spots, 10 to 0.06 mg/ml, overnight growth) is on record?
A: Its value is “sensitive”.

Q: What does the source list for nourseothricin?
A: concentration at which C. albicans is sensitive ([1]; C. albicans): about 200 μg/ml; effect of medium on antifungal effectiveness ([1]; rich, high-salt YPD plates versus minimal YNB plates): dramatically more effective on rich media; antifungal activity by halo assay [2]: potent antifungal activity; growth of strains lacking SAT in the presence of the drug [3]: failed to grow; cross-resistance conferred by KanR [4]: failed to confer resistance

Reference: US6562595B2, “Dominant selectable marker for gene transformation and disruption in yeasts” (McGill University, priority 2000, dated 2003)
